Experimental data published in ChEMBL document CHEMBL3046266, “Synthesis of curcumin and ethylcurcumin bioconjugates as potential antitumor agents” (Med Chem Res, 2012).
The source made the active and inactive calls. No cut-off for these calls is given here.

What was measured:
LLC-PK1 [1] = experiment: Cytotoxicity against Sus scrofa (pig) LLC-PK1 cells up to 25 uM by neutral red staining; format: cell-based
[2] = target: T1, DNA topoisomerase 1 (Homo sapiens) (UniProt P11387); experiment: Inhibition of Homo sapiens (human) topoisomerase 1 assessed as relaxation of supercoiled DNA up to 25 uM by agarose gel electrophoresis
T1 sequence (whole entry): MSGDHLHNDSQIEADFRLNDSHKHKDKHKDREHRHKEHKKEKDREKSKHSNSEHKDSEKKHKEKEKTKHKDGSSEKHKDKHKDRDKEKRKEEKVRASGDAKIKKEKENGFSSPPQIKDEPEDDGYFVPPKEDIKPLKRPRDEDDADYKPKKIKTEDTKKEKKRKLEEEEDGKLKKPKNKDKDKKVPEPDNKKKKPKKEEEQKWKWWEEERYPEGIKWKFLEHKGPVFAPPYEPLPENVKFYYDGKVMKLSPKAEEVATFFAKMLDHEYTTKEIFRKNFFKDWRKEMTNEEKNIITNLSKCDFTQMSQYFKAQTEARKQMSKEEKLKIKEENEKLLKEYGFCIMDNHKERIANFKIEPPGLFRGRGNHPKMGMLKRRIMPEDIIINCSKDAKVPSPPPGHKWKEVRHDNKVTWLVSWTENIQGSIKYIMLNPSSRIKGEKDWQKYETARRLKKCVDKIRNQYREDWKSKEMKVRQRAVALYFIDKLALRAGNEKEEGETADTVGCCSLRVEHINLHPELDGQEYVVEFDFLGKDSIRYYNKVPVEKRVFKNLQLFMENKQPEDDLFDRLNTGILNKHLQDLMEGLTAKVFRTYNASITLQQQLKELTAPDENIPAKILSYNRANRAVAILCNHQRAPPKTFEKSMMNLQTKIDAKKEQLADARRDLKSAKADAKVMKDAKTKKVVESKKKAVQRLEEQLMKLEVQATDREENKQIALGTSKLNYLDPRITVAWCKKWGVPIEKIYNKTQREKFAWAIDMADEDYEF

Vero = experiment: Cytotoxicity against Chlorocebus aethiops (African green monkey) Vero cells up to 25 uM by neutral red staining; format: cell-based; conditions: chlorocebus sabaeus
[3] = target: T1, DNA topoisomerase 1 (Homo sapiens); experiment: Inhibition of Homo sapiens (human) topoisomerase 1 assessed as production of nicked DNA up to 25 uM by agarose gel electrophoresis
SK-MEL [4] = experiment: Cytotoxicity against Homo sapiens (human) SK-MEL cells up to 25 uM by neutral red staining; format: functional, cell-based
KB [5] = experiment: Cytotoxicity against Homo sapiens (human) KB cells up to 25 uM by neutral red staining; format: functional, cell-based
SK-OV-3 = experiment: Cytotoxicity against Homo sapiens (human) SKOV3 cells up to 25 uM by neutral red staining; format: functional, cell-based
BT-549 [6] = experiment: Cytotoxicity against Homo sapiens (human) BT549 cells up to 25 uM by neutral red staining; format: functional, cell-based
[7] = target: DNA topoisomerase 2-alpha (Homo sapiens, UniProt P11388); experiment: Inhibition of Homo sapiens (human) topoisomerase 2 assessed as decatenation of KDNA by agarose gel electrophoresis
Chain of DNA topoisomerase 2-alpha (P11388 whole entry): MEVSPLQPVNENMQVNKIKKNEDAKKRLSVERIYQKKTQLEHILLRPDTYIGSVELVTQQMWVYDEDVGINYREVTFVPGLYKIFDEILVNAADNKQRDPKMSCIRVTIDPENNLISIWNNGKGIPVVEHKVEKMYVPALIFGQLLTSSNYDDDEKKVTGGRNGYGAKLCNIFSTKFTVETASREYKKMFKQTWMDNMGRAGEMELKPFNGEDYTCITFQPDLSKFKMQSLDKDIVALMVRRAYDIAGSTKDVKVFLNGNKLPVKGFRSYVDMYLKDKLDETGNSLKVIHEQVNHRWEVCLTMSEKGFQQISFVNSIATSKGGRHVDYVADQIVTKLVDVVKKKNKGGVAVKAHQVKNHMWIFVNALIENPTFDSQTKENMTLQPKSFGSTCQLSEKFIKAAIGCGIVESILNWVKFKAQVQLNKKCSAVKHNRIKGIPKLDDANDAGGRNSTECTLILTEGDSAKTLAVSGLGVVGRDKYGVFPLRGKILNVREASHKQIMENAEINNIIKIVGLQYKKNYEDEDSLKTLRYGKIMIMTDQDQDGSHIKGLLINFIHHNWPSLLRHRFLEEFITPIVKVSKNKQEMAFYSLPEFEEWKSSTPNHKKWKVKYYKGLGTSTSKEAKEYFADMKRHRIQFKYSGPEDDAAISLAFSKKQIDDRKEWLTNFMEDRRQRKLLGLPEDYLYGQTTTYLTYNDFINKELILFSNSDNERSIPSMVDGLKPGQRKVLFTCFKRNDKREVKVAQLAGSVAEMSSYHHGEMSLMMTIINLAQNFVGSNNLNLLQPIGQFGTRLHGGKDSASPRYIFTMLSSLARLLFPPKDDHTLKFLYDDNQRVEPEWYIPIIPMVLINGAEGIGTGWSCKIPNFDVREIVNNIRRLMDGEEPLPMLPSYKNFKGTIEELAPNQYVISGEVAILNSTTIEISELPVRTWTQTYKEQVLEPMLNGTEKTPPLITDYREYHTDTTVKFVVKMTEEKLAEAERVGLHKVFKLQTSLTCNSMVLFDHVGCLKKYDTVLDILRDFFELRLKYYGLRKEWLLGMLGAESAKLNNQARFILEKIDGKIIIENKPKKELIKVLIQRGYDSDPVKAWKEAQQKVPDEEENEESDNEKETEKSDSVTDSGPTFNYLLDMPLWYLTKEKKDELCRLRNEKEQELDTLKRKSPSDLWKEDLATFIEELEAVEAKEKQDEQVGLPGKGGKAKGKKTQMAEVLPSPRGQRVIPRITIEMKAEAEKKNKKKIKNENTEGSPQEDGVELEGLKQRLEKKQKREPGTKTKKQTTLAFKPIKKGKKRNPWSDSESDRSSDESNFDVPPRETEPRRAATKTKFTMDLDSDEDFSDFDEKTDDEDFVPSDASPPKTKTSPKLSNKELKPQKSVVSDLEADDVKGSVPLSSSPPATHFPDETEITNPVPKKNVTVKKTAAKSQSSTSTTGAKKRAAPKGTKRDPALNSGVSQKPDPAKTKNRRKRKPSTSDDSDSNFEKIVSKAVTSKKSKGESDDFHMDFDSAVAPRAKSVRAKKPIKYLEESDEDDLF

BT-549 [8] = experiment: Cytotoxicity against Homo sapiens (human) BT549 cells by neutral red staining; format: functional, cell-based
SK-MEL [9] = experiment: Cytotoxicity against Homo sapiens (human) SK-MEL cells by neutral red staining; format: functional, cell-based
KB [10] = experiment: Cytotoxicity against Homo sapiens (human) KB cells by neutral red staining; format: functional, cell-based
LLC-PK1 [11] = experiment: Cytotoxicity against Sus scrofa (pig) LLC-PK1 cells by neutral red staining; format: cell-based

Compound	inhibition [2]	inhibition [3]	IC50 [7] [µM]	Activity (LLC-PK1 [1])	Activity (Vero)	Activity (SK-MEL [4])	Activity (KB [5])	Activity (SK-OV-3)	Activity (BT-549 [6])	IC50 (BT-549 [8]) [µM]	IC50 (SK-MEL [9]) [µM]	IC50 (KB [10]) [µM]	IC50 (LLC-PK1 [11]) [µM]
CCOc1cc(/C=C/C(=O)CC(=O)/C=C/c2ccc(OC(=O)CNC34CC5CC(CC(C5)C3)C4)c(OCC)c2)ccc1OC(=O)CNC12CC3CC(CC(C3)C1)C2	inactive	inactive	3.4	Non-toxic	Non-toxic	inactive	inactive	inactive	inactive				
CCOc1cc(/C=C/C(=O)CC(=O)/C=C/c2ccc(OC(=O)CCl)c(OCC)c2)ccc1OC(=O)CCl [DI-O-CHLOROACETYLETHYL CURCUMIN]	inactive	inactive	12	Non-toxic	Non-toxic	inactive	inactive	inactive	inactive				
COc1ccc2nc(NCC(=O)Oc3ccc(/C=C/C(=O)CC(=O)/C=C/c4ccc(OC(=O)CNc5nc6ccc(OC)cc6s5)c(OC)c4)cc3OC)sc2c1	inactive	inactive	15		Non-toxic			inactive		18.1	15	23	22.5
COc1cc(/C=C/C(=O)CC(=O)/C=C/c2ccc(OC(=O)CCl)c(OC)c2)ccc1OC(=O)CCl [DI-O-CHLOROACETYLCURCUMIN]	inactive	inactive	20	Non-toxic	Non-toxic			inactive		10	12.5	> 25	
COc1cc(/C=C/C(=O)CC(=O)/C=C/c2ccc(OC(=O)CNCCCl)c(OC)c2)ccc1OC(=O)CNCCCl	inactive	inactive	0.35	Non-toxic	Non-toxic	inactive	inactive	inactive	inactive				
CCOc1cc(/C=C/C(=O)CC(=O)/C=C/c2ccc(OC(=O)CNCCN(C)C)c(OCC)c2)ccc1OC(=O)CNCCN(C)C	inactive	inactive	4		Non-toxic	inactive	inactive	inactive		11.5			22
COc1cc(/C=C/C(=O)CC(=O)/C=C/c2ccc(OC(=O)CNC34CC5CC(CC(C5)C3)C4)c(OC)c2)ccc1OC(=O)CNC12CC3CC(CC(C3)C1)C2	inactive	inactive	4	Non-toxic	Non-toxic			inactive		19.4	15	> 25	
CCOc1cc(/C=C/C(=O)CC(=O)/C=C/c2ccc(OC(=O)CCNCCN(CC)CC)c(OCC)c2)ccc1OC(=O)CCNCCN(CC)CC	inactive	inactive	7.1	Non-toxic	Non-toxic	inactive	inactive	inactive	inactive				
COc1ccc2nc(NCCC(=O)Oc3ccc(/C=C/C(=O)CC(=O)/C=C/c4ccc(OC(=O)CCNc5nc6ccc(OC)cc6s5)c(OC)c4)cc3OC)sc2c1	inactive	inactive	19	Non-toxic	Non-toxic			inactive		23.8	23.8	> 25	
CCOc1cc(/C=C/C(=O)CC(=O)/C=C/c2ccc(OC(=O)CCNC34CC5CC(CC(C5)C3)C4)c(OCC)c2)ccc1OC(=O)CCNC12CC3CC(CC(C3)C1)C2	inactive	inactive	2.1	Non-toxic	Non-toxic	inactive		inactive	inactive			15	

More lines, main results first:

inhibition [2]	inhibition [3]	IC50 [7] [µM]	Compound	Activity (LLC-PK1 [1])	Activity (Vero)	Activity (SK-MEL [4])	Activity (KB [5])	Activity (SK-OV-3)	Activity (BT-549 [6])	IC50 (BT-549 [8]) [µM]	IC50 (SK-MEL [9]) [µM]	IC50 (KB [10]) [µM]	IC50 (LLC-PK1 [11]) [µM]
inactive	inactive	15	COc1cc(/C=C/C(=O)CC(=O)/C=C/c2ccc(O)c(OC)c2)ccc1O [CURCUMIN]	Non-toxic	Non-toxic			inactive		10.5	13.8	> 25	
inactive	inactive	23	CCOc1cc(/C=C/C(=O)CC(=O)/C=C/c2ccc(OC(=O)c3cccs3)c(OCC)c2)ccc1OC(=O)c1cccs1 [DI-O-(2-THIENOYL)ETHYLCURCUMIN]	Non-toxic	Non-toxic	inactive	inactive	inactive	inactive				
inactive	inactive	7.5	CCOc1cc(/C=C/C(=O)CC(=O)/C=C/c2ccc(O)c(OCC)c2)ccc1O [ETHYL CURCUMIN]	Non-toxic	Non-toxic			inactive		18	16	> 25	
inactive	inactive	20	CCOc1cc(/C=C/C(=O)CC(=O)/C=C/c2ccc(OC(=O)CCCl)c(OCC)c2)ccc1OC(=O)CCCl [DI-O-CHLOROPROPIONYLETHYL CURCUMIN]	Non-toxic	Non-toxic	inactive	inactive	inactive	inactive				
inactive	inactive	8	COc1cc(/C=C/C(=O)CC(=O)/C=C/c2ccc(OC(=O)c3cccs3)c(OC)c2)ccc1OC(=O)c1cccs1 [DI-O-(2-THIENOYL)CURCUMIN]	Non-toxic	Non-toxic	inactive	inactive	inactive	inactive				
inactive	inactive	3	CCCCCCC(=O)Oc1ccc(/C=C/C(=O)CC(=O)/C=C/c2ccc(OC(=O)CCCCCC)c(OCC)c2)cc1OCC [DI-O-HEPTANOYLETHYLCURCUMIN]	Non-toxic	Non-toxic	inactive	inactive	inactive	inactive				
inactive	inactive	4.5	COc1cc(/C=C/C(=O)CC(=O)/C=C/c2ccc(OC(=O)C34CC5CC(CC(C5)C3)C4)c(OC)c2)ccc1OC(=O)C12CC3CC(CC(C3)C1)C2 [DI-O-ADAMANTOYLCURCUMIN]	Non-toxic	Non-toxic	inactive	inactive	inactive	inactive				
inactive	inactive	2.9	CCCCCCC(=O)Oc1ccc(/C=C/C(=O)CC(=O)/C=C/c2ccc(OC(=O)CCCCCC)c(OC)c2)cc1OC [DI-O-HEPTANOYLCURCUMIN]	Non-toxic	Non-toxic	inactive	inactive	inactive	inactive				
inactive	inactive	18	COc1cc(/C=C/C(=O)CC(=O)/C=C/c2ccc(OC(=O)CCNC34CC5CC(CC(C5)C3)C4)c(OC)c2)ccc1OC(=O)CCNC12CC3CC(CC(C3)C1)C2	Non-toxic	Non-toxic			inactive		20.5	18.5	> 25	
